# Values of other authors in patent publication US20060154930A1, “Substituted amino heterocycles as vr-1 antagonists for treating pain” (priority 2003, published 2006).
# Target: VR1 (Rattus norvegicus, UniProt O35433)
# Conditions: Wahl et al., Mol. Pharmacol, 59:9, 2001
# VR1, sequence (O35433 whole entry): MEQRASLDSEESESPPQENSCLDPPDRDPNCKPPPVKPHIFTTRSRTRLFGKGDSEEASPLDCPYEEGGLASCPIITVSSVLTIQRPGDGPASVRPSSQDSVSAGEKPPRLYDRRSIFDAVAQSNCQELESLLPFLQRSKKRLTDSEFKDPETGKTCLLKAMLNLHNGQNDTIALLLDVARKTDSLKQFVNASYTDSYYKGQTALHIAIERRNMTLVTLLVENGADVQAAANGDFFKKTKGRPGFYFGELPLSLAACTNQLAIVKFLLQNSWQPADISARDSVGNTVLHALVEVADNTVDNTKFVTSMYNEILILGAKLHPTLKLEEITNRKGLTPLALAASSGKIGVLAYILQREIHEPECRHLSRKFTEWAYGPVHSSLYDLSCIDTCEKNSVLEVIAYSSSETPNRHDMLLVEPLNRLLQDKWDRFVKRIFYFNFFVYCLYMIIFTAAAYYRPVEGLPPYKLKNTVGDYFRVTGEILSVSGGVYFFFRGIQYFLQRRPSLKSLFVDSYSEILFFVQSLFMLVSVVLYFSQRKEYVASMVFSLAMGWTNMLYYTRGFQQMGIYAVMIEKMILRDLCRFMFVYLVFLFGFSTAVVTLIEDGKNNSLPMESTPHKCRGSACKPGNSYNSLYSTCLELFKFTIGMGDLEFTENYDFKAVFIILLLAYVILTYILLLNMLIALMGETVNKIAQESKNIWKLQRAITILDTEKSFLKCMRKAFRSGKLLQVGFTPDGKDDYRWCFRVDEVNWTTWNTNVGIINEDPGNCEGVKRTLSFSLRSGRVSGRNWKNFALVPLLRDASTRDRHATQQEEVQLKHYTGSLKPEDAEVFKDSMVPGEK
structure (smiles),measurement,value
C=C(C)[C@]12C[C@@H](C)[C@@]34O[C@](Cc5ccccc5)(O[C@@H]1[C@@H]3C=C(COC(=O)Cc1cc(I)c(O)c(OC)c1)C[C@]1(O)C(=O)C(C)=C[C@@H]41)O2 [Iodo-resiniferatoxin],VR1 antagonist potency (in words),nanomolar antagonist
